Assay results taken from patent US11197856B2, “Bicyclic compounds and methods for their use in treating autism” (priority 2013, dated 2021).

Test system: MeCP2 deficient mice
Experiment: Survival of MeCP2 deficient mice (Rett Syndrome model)
Details: for survival: MeCP2 deficient mice
Experimental: We treat hemizygous MeCP2(1lox) male mice with 20 mg/kg/day of cG-2-AllylP or saline, (0.01% BSA, n=15 per group in survival experiment and n=20 in the LTP experiment). The treatments are administered intraperitoneally from 4 weeks after birth. For the survival experiments the treatment is maintained through the course of the experiment. For the LTP experiment the mice are treated until week 9 when they are used for slice preparation.
MeCP2 deficient mutant mice develop RTT symptoms at about 4-6 weeks of age and […] (Chen et al., 2001. Nat Genet 27: 327-331). We compare the survival of the wild type controls and the MeCP2 deficient animals in vehicle- and cG-2-AllylP-treated groups. Survival is measured weekly from start of treatment (4 weeks) and used to produce Kaplan-Meier survival curves to show the proportion of mice that survive (y axis) at each weekly interval (x axis).
For the survival measurements, the nocturnal activity analysis and the immunoblot analysis, cG-2-AllylP supplied by Neuren Pharmaceuticals Limited is administered daily via intra-peritoneal injections (20 mg/kg, vehicle=saline, 0.01% BSA). The treatment starts at PI 5 and is maintained throughout the course of the experiments. For intracellular physiology experiments, the mice are injected daily with cG-2-AllylP (20 mg/kg body weight, vehicle=saline, 0.01% BSA) for 2 weeks, from P15 to P28-P32 when they are used for acute slice preparation. For optical imaging experiments, mice are injected with cG-2-AllylP (20 mg/kg body weight, vehicle=saline, 0.01% BSA) daily from the day of the lid suture to the day of imaging.
Therefore, we administer cG-2-AllylP orally to MeCP2 deficient mice. Briefly, an aqueous solution or other composition containing a pharmaceutically effective amount of cG-2-AllylP (20 or 80 mg/kg per animal) is administered daily.

SMILES: C=CC[C@]12CCCN1C(=O)CNC2=O [cG-2-AllylP, (8aS)-Allyl-hexahydropyrrolo[1,2-a]pyrazine-1,4-dione]
- life expectancy (MeCP2-/y mice, 20 mg/kg daily intra-peritoneal from P15): increase in life expectancy
- survival (20 mg/kg/day intraperitoneally from 4 weeks): survive substantially longer than saline-treated mice
- survival (oral, 20 or 80 mg/kg daily): survival is increased substantially
- safety concerns (mecp2 mice, 20 mg/kg/day intraperitoneally): No safety concerns are raised
